# Measurements published in PubChem BioAssay AID588805 (The Scripps Research Institute Molecular Screening Center, 2011).
# Calls of active or inactive are those of the source. How the calls were made is not given here.
# Columns and labels:
# Assay in all cases: ABHD10 inhibitor ABPP-SILAC selectivity profile – cell-based, LC-MS/MS, selectivity assay for PME-1 inhibitor project, late-stage follow-up (AID 588805)
# Abhd11 = conditions: serine hydrolase panel, active compounds read low
# Abhd12 = conditions: serine hydrolase panel, active compounds read low
# Abhd13 = conditions: serine hydrolase panel, active compounds read low
# Ache = conditions: serine hydrolase panel, active compounds read low
# Acot2 = conditions: serine hydrolase panel, active compounds read low
# Acot7 = conditions: serine hydrolase panel, active compounds read low
# Acot9 = conditions: serine hydrolase panel, active compounds read low
# [1] = target: Acyl-protein thioesterase 1 (Mus musculus) (UniProt P97823); conditions: serine hydrolase panel, Lypla1, active compounds read low
# Acyl-protein thioesterase 1 (Mus musculus), sequence (P97823 whole entry, looked up): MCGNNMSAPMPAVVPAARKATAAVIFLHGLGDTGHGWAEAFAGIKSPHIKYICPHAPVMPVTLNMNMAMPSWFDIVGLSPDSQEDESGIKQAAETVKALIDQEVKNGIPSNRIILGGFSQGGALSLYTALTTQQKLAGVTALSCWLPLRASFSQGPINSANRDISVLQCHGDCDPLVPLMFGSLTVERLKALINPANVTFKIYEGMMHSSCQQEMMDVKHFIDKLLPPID
# Apeh = conditions: serine hydrolase panel, active compounds read low
# Bat5 = conditions: serine hydrolase panel, active compounds read low
# Ctsa = conditions: serine hydrolase panel, active compounds read low
# Ddhd2 = conditions: serine hydrolase panel, active compounds read low
# [2] = target: Diacylglycerol lipase-beta (Mus musculus) (UniProt Q91WC9); conditions: serine hydrolase panel, Daglb, active compounds read low
# Diacylglycerol lipase-beta (Mus musculus), sequence (Q91WC9 whole entry, looked up): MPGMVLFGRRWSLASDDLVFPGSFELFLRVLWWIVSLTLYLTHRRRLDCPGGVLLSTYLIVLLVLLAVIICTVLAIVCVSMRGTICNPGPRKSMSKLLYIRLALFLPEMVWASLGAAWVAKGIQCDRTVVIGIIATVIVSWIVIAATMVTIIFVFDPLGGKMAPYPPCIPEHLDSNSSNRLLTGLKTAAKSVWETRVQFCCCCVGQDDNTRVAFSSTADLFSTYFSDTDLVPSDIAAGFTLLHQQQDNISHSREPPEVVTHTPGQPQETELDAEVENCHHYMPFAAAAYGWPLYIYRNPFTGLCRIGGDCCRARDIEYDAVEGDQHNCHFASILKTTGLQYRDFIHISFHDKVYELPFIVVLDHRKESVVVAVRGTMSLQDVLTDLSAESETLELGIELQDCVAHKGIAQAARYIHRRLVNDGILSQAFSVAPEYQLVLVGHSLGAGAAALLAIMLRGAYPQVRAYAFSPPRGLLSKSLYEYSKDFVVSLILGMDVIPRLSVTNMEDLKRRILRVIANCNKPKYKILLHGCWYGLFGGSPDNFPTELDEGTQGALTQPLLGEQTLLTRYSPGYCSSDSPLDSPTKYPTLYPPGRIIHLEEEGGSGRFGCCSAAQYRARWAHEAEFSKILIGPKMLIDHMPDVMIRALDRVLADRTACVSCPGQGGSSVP
# Dpp7 = conditions: serine hydrolase panel, active compounds read low
# Dpp8 = conditions: serine hydrolase panel, active compounds read low
# Dpp9 = conditions: serine hydrolase panel, active compounds read low
# Esd = conditions: serine hydrolase panel, active compounds read low
# Faah = conditions: serine hydrolase panel, active compounds read low
# Fam108a = conditions: serine hydrolase panel, active compounds read low
# Fam108b1 = conditions: serine hydrolase panel, active compounds read low
# Fam108c1 = conditions: serine hydrolase panel, active compounds read low
# Fasn = conditions: serine hydrolase panel, active compounds read low
# Htra2 = conditions: serine hydrolase panel, active compounds read low
# Iah1 = conditions: serine hydrolase panel, active compounds read low
# Lactb = conditions: serine hydrolase panel, active compounds read low
# Lipe = conditions: serine hydrolase panel, active compounds read low
# Lypla2 = conditions: serine hydrolase panel, active compounds read low
# Lyplal1 = conditions: serine hydrolase panel, active compounds read low
# [3] = target: Monoacylglycerol lipase ABHD6 (Mus musculus) (UniProt Q8R2Y0); conditions: serine hydrolase panel, active compounds read low
# Monoacylglycerol lipase ABHD6 (Mus musculus), sequence (Q8R2Y0 whole entry, looked up): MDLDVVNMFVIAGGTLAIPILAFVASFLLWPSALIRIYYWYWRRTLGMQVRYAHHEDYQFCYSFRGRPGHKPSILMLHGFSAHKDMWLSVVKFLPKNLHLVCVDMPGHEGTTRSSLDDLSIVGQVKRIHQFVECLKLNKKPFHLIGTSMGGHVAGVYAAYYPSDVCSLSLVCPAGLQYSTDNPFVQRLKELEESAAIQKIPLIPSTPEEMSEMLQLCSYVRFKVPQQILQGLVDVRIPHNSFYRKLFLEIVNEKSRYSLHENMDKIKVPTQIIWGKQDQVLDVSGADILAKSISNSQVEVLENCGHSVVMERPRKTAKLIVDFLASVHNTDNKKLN
# Nceh1 = conditions: serine hydrolase panel, active compounds read low
# Pafah1b2 = conditions: serine hydrolase panel, active compounds read low
# Pafah1b3 = conditions: serine hydrolase panel, active compounds read low
# [4] = target: Palmitoyl-protein thioesterase ABHD10, mitochondrial (Mus musculus) (UniProt Q6PE15); conditions: serine hydrolase panel, active compounds read low
# Palmitoyl-protein thioesterase ABHD10, mitochondrial (Mus musculus), sequence (Q6PE15 whole entry, looked up): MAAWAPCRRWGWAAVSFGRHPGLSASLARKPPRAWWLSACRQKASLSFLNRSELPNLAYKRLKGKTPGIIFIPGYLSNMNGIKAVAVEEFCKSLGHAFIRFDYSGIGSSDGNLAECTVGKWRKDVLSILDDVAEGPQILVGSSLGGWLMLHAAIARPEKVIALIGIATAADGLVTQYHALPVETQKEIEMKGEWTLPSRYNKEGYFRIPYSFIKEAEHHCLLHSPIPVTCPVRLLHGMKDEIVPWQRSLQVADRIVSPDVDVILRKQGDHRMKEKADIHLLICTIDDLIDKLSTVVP
# Parl = conditions: serine hydrolase panel, active compounds read low
# Pgap1 = conditions: serine hydrolase panel, active compounds read low
# Pla2g15 = conditions: serine hydrolase panel, active compounds read low
# Pla2g6 = conditions: serine hydrolase panel, active compounds read low
# [5] = target: Platelet-activating factor acetylhydrolase 2, cytoplasmic (Mus musculus) (UniProt Q8VDG7); conditions: serine hydrolase panel, Pafah2, active compounds read low
# Platelet-activating factor acetylhydrolase 2, cytoplasmic (Mus musculus), sequence (Q8VDG7 whole entry, looked up): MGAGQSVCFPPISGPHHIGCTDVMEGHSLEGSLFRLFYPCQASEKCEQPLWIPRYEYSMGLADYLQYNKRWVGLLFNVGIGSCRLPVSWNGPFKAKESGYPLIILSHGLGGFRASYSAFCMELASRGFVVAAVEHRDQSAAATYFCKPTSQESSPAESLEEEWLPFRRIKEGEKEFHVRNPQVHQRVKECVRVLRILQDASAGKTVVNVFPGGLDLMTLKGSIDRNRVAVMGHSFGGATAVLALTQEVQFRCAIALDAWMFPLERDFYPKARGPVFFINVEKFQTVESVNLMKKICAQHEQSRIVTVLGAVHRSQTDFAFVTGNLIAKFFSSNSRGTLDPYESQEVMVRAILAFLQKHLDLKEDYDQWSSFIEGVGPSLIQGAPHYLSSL
# Pme1 = conditions: serine hydrolase panel, active compounds read low
# Pnpla6 = conditions: serine hydrolase panel, active compounds read low
# Pnpla7 = conditions: serine hydrolase panel, active compounds read low
# Pnpla8 = conditions: serine hydrolase panel, active compounds read low
# Ppt2 = conditions: serine hydrolase panel, active compounds read low
# Prcp = conditions: serine hydrolase panel, active compounds read low
# Prepl = conditions: serine hydrolase panel, active compounds read low
# [6] = target: Prolyl endopeptidase (Mus musculus) (UniProt Q9QUR6); conditions: serine hydrolase panel, Prep, active compounds read low
# Prolyl endopeptidase (Mus musculus), sequence (Q9QUR6 whole entry, looked up): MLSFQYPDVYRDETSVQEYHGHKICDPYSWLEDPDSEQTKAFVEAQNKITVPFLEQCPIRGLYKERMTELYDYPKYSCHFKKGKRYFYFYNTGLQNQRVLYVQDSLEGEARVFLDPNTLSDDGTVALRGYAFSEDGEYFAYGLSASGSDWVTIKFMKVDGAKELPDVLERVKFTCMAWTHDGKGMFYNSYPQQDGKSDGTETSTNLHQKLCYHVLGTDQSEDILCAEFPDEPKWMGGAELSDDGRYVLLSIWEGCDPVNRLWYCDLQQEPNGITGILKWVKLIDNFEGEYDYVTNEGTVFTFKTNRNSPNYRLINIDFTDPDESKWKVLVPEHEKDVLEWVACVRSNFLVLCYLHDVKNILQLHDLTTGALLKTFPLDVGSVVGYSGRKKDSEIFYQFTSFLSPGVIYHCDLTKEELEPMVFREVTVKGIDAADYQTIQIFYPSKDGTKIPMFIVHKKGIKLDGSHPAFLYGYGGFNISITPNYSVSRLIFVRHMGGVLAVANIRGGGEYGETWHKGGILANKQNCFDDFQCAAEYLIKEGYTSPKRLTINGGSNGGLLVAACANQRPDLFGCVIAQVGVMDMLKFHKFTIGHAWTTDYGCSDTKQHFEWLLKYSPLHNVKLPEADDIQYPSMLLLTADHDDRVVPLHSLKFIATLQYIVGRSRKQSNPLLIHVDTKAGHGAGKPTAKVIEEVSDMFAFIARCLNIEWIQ
# Qrsl1 = conditions: serine hydrolase panel, active compounds read low
# Rbbp9 = conditions: serine hydrolase panel, active compounds read low
# Sec23ip = conditions: serine hydrolase panel, active compounds read low
# Serhl = conditions: serine hydrolase panel, active compounds read low
smiles,measurement,setting,value
CC[C@@]1(c2ccc(C)cc2)C(=O)N(C(=O)OC(C)C)N1C(=O)OC(C)C,SILAC ratio (treated/control),Abhd11,1 (inactive)
same,SILAC ratio (treated/control),Abhd12,0.9 (inactive)
same,SILAC ratio (treated/control),Abhd13,0.84 (inactive)
same,SILAC ratio (treated/control),Ache,0.9 (inactive)
same,SILAC ratio (treated/control),Acot2,1 (inactive)
same,SILAC ratio (treated/control),Acot7,1.05 (inactive)
same,SILAC ratio (treated/control),Acot9,1.1 (inactive)
same,SILAC ratio (treated/control),[1],1.14 (inactive)
same,SILAC ratio (treated/control),Apeh,1.07 (inactive)
same,SILAC ratio (treated/control),Bat5,1.02 (inactive)
same,SILAC ratio (treated/control),Ctsa,0.81 (inactive)
same,SILAC ratio (treated/control),Ddhd2,0.99 (inactive)
same,SILAC ratio (treated/control),[2],0.96 (inactive)
same,SILAC ratio (treated/control),Dpp7,0.97 (inactive)
same,SILAC ratio (treated/control),Dpp8,1.48 (inactive)
same,SILAC ratio (treated/control),Dpp9,1.08 (inactive)
same,SILAC ratio (treated/control),Esd,1.04 (inactive)
same,SILAC ratio (treated/control),Faah,0.94 (inactive)
same,SILAC ratio (treated/control),Fam108a,1.16 (inactive)
same,SILAC ratio (treated/control),Fam108b1,1.05 (inactive)
same,SILAC ratio (treated/control),Fam108c1,0.93 (inactive)
same,SILAC ratio (treated/control),Fasn,1.1 (inactive)
same,SILAC ratio (treated/control),Htra2,0.98 (inactive)
same,SILAC ratio (treated/control),Iah1,0.95 (inactive)
same,SILAC ratio (treated/control),Lactb,0.85 (inactive)
same,SILAC ratio (treated/control),Lipe,1.13 (inactive)
same,SILAC ratio (treated/control),Lypla2,1.07 (inactive)
same,SILAC ratio (treated/control),Lyplal1,1.06 (inactive)
same,SILAC ratio (treated/control),[3],0.87 (inactive)
same,SILAC ratio (treated/control),Nceh1,1.03 (inactive)
same,SILAC ratio (treated/control),Pafah1b2,1.06 (inactive)
same,SILAC ratio (treated/control),Pafah1b3,1.06 (inactive)
same,SILAC ratio (treated/control),[4],0.02
same,SILAC ratio (treated/control),Parl,0.96 (inactive)
same,SILAC ratio (treated/control),Pgap1,0.92 (inactive)
same,SILAC ratio (treated/control),Pla2g15,1 (inactive)
same,SILAC ratio (treated/control),Pla2g6,1.06 (inactive)
same,SILAC ratio (treated/control),[5],1.06 (inactive)
same,SILAC ratio (treated/control),Pme1,1.06 (inactive)
same,SILAC ratio (treated/control),Pnpla6,1.32 (inactive)
same,SILAC ratio (treated/control),Pnpla7,1.01 (inactive)
same,SILAC ratio (treated/control),Pnpla8,0.97 (inactive)
same,SILAC ratio (treated/control),Ppt2,1.04 (inactive)
same,SILAC ratio (treated/control),Prcp,0.94 (inactive)
same,SILAC ratio (treated/control),Prepl,1.05 (inactive)
same,SILAC ratio (treated/control),[6],1.01 (inactive)
same,SILAC ratio (treated/control),Qrsl1,0.96 (inactive)
same,SILAC ratio (treated/control),Rbbp9,1.07 (inactive)
same,SILAC ratio (treated/control),Sec23ip,1.17 (inactive)
same,SILAC ratio (treated/control),Serhl,0.9 (inactive)
